Reference: PubChem BioAssay (NCI)
Where “and” joins values, the source holds several entries; their conditions need not be identical. Equal values may be shown once.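 Interpolation was linear, between the two tested concentrations surrounding the appropriate level; five concentrations were tested over 48 hours in 96-well plates. GI50 marks 50% less growth. TGI denotes the concentration required for complete inhibition of growth.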

What was measured:
Assay in all cases: inhibition of tumour cell growth, NCI panel, 48 h
MOLT-4 leukemia = tested on: MOLT-4 leukemia
UO-31 renal = tested on: UO-31 renal
M14 melanoma = tested on: M14 melanoma
CAKI-1 renal = tested on: CAKI-1 renal
HL-60(TB) leukemia = tested on: HL-60(TB) leukemia
RPMI-8226 leukemia = tested on: RPMI-8226 leukemia
TK-10 renal = tested on: TK-10 renal
CCRF-CEM leukemia = tested on: CCRF-CEM leukemia
UACC-257 melanoma = tested on: UACC-257 melanoma
HOP-62 NSCLC = tested on: HOP-62 NSCLC

SMILES | TGI (MOLT-4 leukemia) | TGI (UO-31 renal) | TGI (M14 melanoma) | TGI (CAKI-1 renal) | TGI (HL-60(TB) leukemia) | TGI (RPMI-8226 leukemia) | TGI (TK-10 renal) | TGI (CCRF-CEM leukemia) | TGI (UACC-257 melanoma) | TGI (HOP-62 NSCLC) | GI50 (UO-31 renal) | GI50 (M14 melanoma) | GI50 (CAKI-1 renal) | GI50 (HL-60(TB) leukemia) | GI50 (RPMI-8226 leukemia) | GI50 (TK-10 renal) | GI50 (UACC-257 melanoma) | GI50 (HOP-62 NSCLC) | GI50 (MOLT-4 leukemia) | GI50 (CCRF-CEM leukemia)
Cc1c(/C=N/NS(=O)(=O)c2ccccc2)no[n+]1[O-] | > 100 µM | 49.6 µM | > 100 µM | > 100 µM | > 100 µM | > 100 µM | > 100 µM | > 100 µM |  |  |  |  |  |  |  |  |  |  |  | 
CCCC1c2c(ccc3ccccc23)Oc2ccc3ccccc3c21 | > 100 µM | > 100 µM | > 100 µM | > 100 µM |  | 98.6 µM | 98.2 µM |  | 70.8 µM | > 100 µM |  |  |  |  |  |  |  |  |  | 
COc1cc(Nc2nc3cc(N)cc(N)c3nc2-c2ccccc2)cc(OC)c1 |  | 45 µM | 34.8 µM | 73 µM | > 100 µM | 10.4 µM | 42.7 µM | 0.167 µM | 48 µM | 53.8 µM | 8.87 µM | 14.2 µM | 14.9 µM | 9.99 µM | 1.27 µM | 13.1 µM | 15.9 µM | 19.6 µM |  | 
CCOP(=O)(OCC)C(NC(c1ccccc1)c1ccccc1)c1ccccc1 (configuration not stated) | 3.47 µM | 30.2 µM | 28.6 µM | 22.2 µM |  | 22.3 µM | 28.2 µM | 58.8 µM |  | 30.3 µM | 14.9 µM | 15.3 µM | 10.4 µM |  | 4.18 µM | 14.7 µM |  | 16.6 µM | 0.0995 µM | 18.2 µM
CC(=O)O[C@H]1C(=O)[C@@]2(C)C(C(OC(=O)c3ccccc3)[C@]3(O)CC(OC(=O)[C@H](OC(=O)CCC(=O)O)C(NC(=O)c4ccccc4)c4ccccc4)C(C)=C1C3(C)C)C1(OC(C)=O)COC1C[C@@H]2OC(=O)CCC(=O)O (some centres not stated) | > 20.6 µM | > 100 µM | > 100 µM | > 100 µM | 0.868 µM |  | > 100 µM |  | > 100 µM |  |  |  | > 89.2 µM and 36.3 µM |  |  |  |  |  |  | 
COc1ccc(C=C2C(=O)OC(C)(C)OC2=O)cc1OC | > 100 µM | > 100 µM | > 100 µM | > 100 µM |  | > 100 µM | > 100 µM | > 100 µM | > 100 µM | > 100 µM |  |  |  |  |  |  |  |  |  | 
CCCCCCCCCCCCCCCCCC(=O)OCC(CN(C)CCN(C)C)OC(=O)CCCCCCCCCCCCCCCCC (configuration not stated) | 83.7 µM | > 100 µM | > 100 µM | > 100 µM |  | > 100 µM | > 100 µM | > 100 µM | > 100 µM | > 100 µM |  |  |  |  |  |  |  |  |  | 
O=S(=O)([O-])c1cccc2cccc(N=Cc3ccccc3[O-])c12.O=S(=O)([O-])c1cccc2cccc(N=Cc3ccccc3[O-])c12.[O]=[U]=[O] | > 100 µM | > 100 µM | > 100 µM |  |  | > 100 µM | 67.3 µM | > 100 µM | > 100 µM | > 100 µM | 50.7 µM | 43 µM |  |  | 39.8 µM | 21.3 µM | > 100 µM | 42.6 µM | 29 µM | 18.4 µM
Cc1ccc(C(CN(C)C)C(=O)c2ccccc2)cc1 (configuration not stated) | 5.75 µM | 3.86 µM | 4.35 µM | 7.97 µM | 5.24 µM | 4.28 µM |  | 10.6 µM | 19.2 µM | 27.5 µM | 1.86 µM | 1.91 µM | 2.64 µM | 2.19 µM | 1.12 µM |  | 5.74 µM | 12.2 µM | 1.68 µM | 0.442 µM
OCCCCC#Cc1ccccc1C#Cc1ccccc1 | 63.8 µM | > 100 µM | 22.9 µM | 29.1 µM |  | 37.7 µM | 26.3 µM |  | 43.8 µM | 30.6 µM | 28.4 µM | 10.1 µM | 14.7 µM |  | 15.9 µM | 13.2 µM | 19.4 µM | 16.3 µM | 17.8 µM | 
O=C1C=C[C@@]23CC1C(O)C[C@H]2C=Cc1ccccc13 (some centres not stated) | > 100 µM | > 100 µM | > 100 µM | > 100 µM | > 100 µM | > 100 µM |  | > 100 µM | > 100 µM | > 100 µM |  |  |  |  |  |  |  |  |  | 
Cc1ccc(NC(=O)CC2C(=O)Nc3ccccc3S2=O)cc1C (configuration not stated) | > 100 µM | > 100 µM | > 100 µM | > 100 µM | > 100 µM | > 100 µM | > 100 µM | > 100 µM | > 100 µM |  |  |  |  |  |  |  |  |  |  | 
Cc1ccccc1-c1c(N)nc(NC#N)nc1C(=O)Nc1ccccc1 | > 100 µM | > 100 µM | > 100 µM | > 100 µM |  | > 100 µM | > 100 µM | > 100 µM | > 100 µM | > 100 µM |  |  |  |  |  |  |  |  |  | 
C[C@]12CCC3[C@@H](C[C@@H]4SC(Nc5ccccc5)=N[C@@]45CC(=O)CC[C@]35C)[C@@H]1CCC2=O (some centres not stated) | > 100 µM | 19.4 µM | 50.9 µM | 30.2 µM |  | 7.44 µM | 54.8 µM | > 100 µM | 94.5 µM | > 100 µM | 5.26 µM | 7.88 µM | 13 µM |  | 2.73 µM | 7.46 µM | 23.8 µM | 22.4 µM | 2.84 µM | 2.84 µM
[Cl][Bi]([O]c1ccccn1)[O]c1ccccn1 |  | > 100 µM | > 100 µM | > 100 µM |  |  | > 100 µM |  | > 100 µM |  | > 100 µM | > 100 µM | > 100 µM |  |  | > 100 µM | > 100 µM |  |  | 
O=C(O)CNc1c2ccccc2nc2ccccc12 | > 100 µM | > 100 µM | > 100 µM | > 100 µM | > 100 µM | > 100 µM | > 100 µM | > 100 µM | > 100 µM |  |  |  |  |  |  |  |  |  |  | 
N#CC(C(=O)/C(=N/N)C(C#N)c1ccc(Cl)cc1)c1ccc(Cl)cc1 (configuration not stated) | > 100 µM | > 100 µM | > 100 µM |  | > 100 µM | > 100 µM | > 100 µM | > 100 µM | > 100 µM | > 100 µM |  |  |  |  |  |  |  |  |  | 
Nc1ccc2c(SCCSc3c4ccccc4nc4cc(N)ccc34)c3ccccc3nc2c1 | 39.3 µM | > 100 µM | > 100 µM | > 100 µM |  | > 100 µM | > 100 µM | > 100 µM | > 100 µM | > 100 µM |  |  |  |  |  |  |  |  |  | 
CCCCCCCCCCC/C(=N/O)c1ccc(O)c2ncccc12 |  | 11.4 µM | 4.8 µM | 51.6 µM |  |  | > 100 µM |  | 24.2 µM | 17.5 µM |  |  |  |  |  |  |  |  |  | 
C1CC[N-]CC1.C1CC[N-]CC1.C1CC[N-]CC1.C1CC[N-]CC1.[Cl][Rh][Cl] | > 100 µM | > 100 µM | > 100 µM | > 100 µM |  | 13.6 µM | > 100 µM | 72.4 µM | 69.4 µM | > 100 µM | 34.4 µM | 6.26 µM | 67.7 µM |  | 3.2 µM | 23.6 µM | 3.21 µM | 4.41 µM | 13.7 µM | 3.46 µM
CCCCn1c2cc(OCc3cn(-c4ccc(Cl)cc4)nn3)ccc2c2ccnc(C)c21 | 23.9 µM | 10 µM | 16.4 µM |  | 12.6 µM | 11.9 µM | 14.1 µM | > 33.3 µM | 11.1 µM |  | 4.32 µM | 5.82 µM |  | 5.09 µM | 3.43 µM | 7.55 µM | 5.83 µM |  | 6.07 µM | 9.27 µM
O=c1c2ccccc2c2ccccc2c(=O)n1-c1cc2c3ccccc3ccc2c2ccccc12 |  | > 100 µM | > 100 µM | > 100 µM |  | > 100 µM | > 100 µM |  | > 100 µM | > 100 µM |  |  |  |  |  |  |  |  |  | 
O=Cc1c(-c2cc(O)ccc2O)nc2sccn12 | 11.5 µM | 2.38 µM | 30.1 µM | 4.09 µM |  | 8.09 µM | 23.6 µM | 7.21 µM | 95.8 µM | 26.4 µM | 1.05 µM | 13.8 µM | 0.958 µM |  | 1.76 µM | 11 µM | 29.9 µM | 10.4 µM | 2.52 µM | 0.95 µM
C=C1C(=O)O[C@H]2[C@H]1CC/C(COC(=O)NCc1cc3ccccc3[nH]1)=C\CC[C@@]1(C)O[C@@H]21 | 7.64 µM | 2.43 µM | 3.85 µM |  | 3.16 µM | 3.27 µM | 4.19 µM | 3.36 µM | 4.61 µM | 23.3 µM | 1.2 µM | 1.74 µM |  | 0.865 µM | 0.604 µM | 2.26 µM | 2.11 µM | 10.3 µM | 2.43 µM | 0.443 µM
CCN(CC)c1ccc(/C=C\c2cc(C)c3cc(C)ccc3n2)cc1 | > 100 µM | > 100 µM | > 100 µM | > 100 µM | 7.66 µM | 8.7 µM | 36.7 µM |  |  |  | 6.97 µM | 3.89 µM | 5.55 µM | 3.23 µM | 3.13 µM | 5.11 µM |  |  | 6.12 µM | 
COc1ccc2[nH]c(-c3ccccn3)cc(=O)c2c1 | > 100 µM | > 100 µM | 90.9 µM |  | > 100 µM | > 100 µM | > 100 µM | > 100 µM | > 100 µM | > 100 µM |  |  |  |  |  |  |  |  |  | 
O=C1c2cccc3cc([N+](=O)[O-])cc(c23)C(=O)N1CCNCCNCCNCCN1C(=O)c2cccc3cc([N+](=O)[O-])cc(c23)C1=O | 1.13 µM | 2.16 µM | 0.161 µM | 0.548 µM |  |  | 0.321 µM | 0.635 µM | 0.184 µM and 0.334 µM | 0.216 µM and 0.444 µM |  |  |  |  |  |  | 0.0979 µM |  |  | 
